The test system of assay [1] is Ovarian-39 (OV39) ovarian cancer PDX. The experiment in a line: In vivo efficacy, OV39 ovarian cancer PDX. Details: species or system NOD/SCID mice (human tumor PDX). As to conditions: 5 mpk, once a week for 2 cycles; OV39.
The subject of assay [2] is Ovarian-63 (OV63) ovarian cancer PDX. As to the kind of experiment: In vivo efficacy, OV63 ovarian cancer PDX. Details: species or system NOD/SCID mice (human tumor PDX); mean tumor volume: unit not given beside the values. As to conditions: for mean tumor volume: 5.0 mg/kg.
Assay [3] has as its system Ovarian-44 (OV44) ovarian cancer PDX. The experiment in a line: In vivo efficacy, OV44 ovarian cancer PDX. As to conditions: 5 mpk, once a week for 2 cycles. Details: species or system NOD/SCID mice (human tumor PDX).

`N.N.[Cl][Pt][Cl]` [Cisplatin, cisplatin, reference compound]: the “Regression (TTP, Days)” value is reported as “Regression (28) Days” in assay [1] and “Regression (60) Days” in assay [3]. The mean tumor volume in assay [2] (Day 0) stood at 153 ± 22; in assay [2] (Day 5), 146 ± 27; in assay [2] (Day 18), 198 ± 29; in assay [2] (Day 25) it was 205 ± 36; in assay [2] (Day 32) it was 238 ± 49; in assay [2] (Day 39), 221 ± 40. Also, the mean tumor volume stood at 243 ± 42 in assay [2] (Day 47), 265 ± 63 in assay [2] (Day 53), 296 ± 80 in assay [2] (Day 60) and 265 ± 82 in assay [2] (Day 67). For the same molecule, the “% TGI” value in assay [2] (5 mpk, once a week for 2 cycles, OV63 PDX) amounted to 35% TGI.

Values taken from patent US9872922B2, “Anti-EFNA4 antibody-drug conjugates” (PFIZER, INC., priority 2013, dated 2018).
